Data set [1] has as its target Epidermal growth factor receptor (Homo sapiens) (UniProt P00533). Kind of data set: Inhibition of EGF binding to EGFR in human A431 cells. Format: cell-based. As to conditions: A-431.
A further data set relates to Bacillus cereus. Kind of data set: Antibacterial activity against Bacillus cereus. It counts as functional.
The next data set has as its system Corynebacterium bovis. Kind of data set: Antibacterial activity against Corynebacterium bovis. It counts as functional.
The subject of data set [2] is Mycolicibacterium smegmatis. Put plainly: Antibacterial activity against Mycobacterium smegmatis. Format: functional.
The subject of the next data set is Klebsiella pneumoniae. Kind of data set: Antibacterial activity against Klebsiella pneumoniae. Format: functional.
In a further data set the test system is A-431. Put plainly: Inhibition of phosphatidylinositol turnover in EGF-stimulated human A431 cells by liquid scintillation counting. Format: functional, cell-based.
In another data set the test system is Zone of skin. Put plainly: Toxicity in human skin assessed as erythema. Format: tissue-based.
Another data set has as its system Staphylococcus aureus. Put plainly: Antibacterial activity against Staphylococcus aureus. Format: functional.
In the next data set the test system is Micrococcus luteus. Put plainly: Antibacterial activity against Micrococcus luteus. Format: functional.
The next data set relates to Bacillus anthracis. Put plainly: Antibacterial activity against Bacillus anthracis. Format: functional.
A further data set has as its system Bacillus subtilis. Kind of data set: Antibacterial activity against Bacillus subtilis. It counts as functional.

Values after ≈ are worked out from the molar mass of the structure shown. Active and inactive are the calls of the source. The calls are words filed in the database; no cut-off is given here.

This is an account of results in ChEMBL document CHEMBL1151123, “Isolation of a New Indole Alkaloid, Pendolmycin, from Nocardiopsis” (J Nat Prod, 1988).

By MIC is commonly meant the lowest concentration found to suppress growth. Read a low MIC as a more susceptible organism. Broadly, the IC50 is the concentration needed to halve the response being measured.

Sequence of Epidermal growth factor receptor (Homo sapiens) (P00533 whole entry): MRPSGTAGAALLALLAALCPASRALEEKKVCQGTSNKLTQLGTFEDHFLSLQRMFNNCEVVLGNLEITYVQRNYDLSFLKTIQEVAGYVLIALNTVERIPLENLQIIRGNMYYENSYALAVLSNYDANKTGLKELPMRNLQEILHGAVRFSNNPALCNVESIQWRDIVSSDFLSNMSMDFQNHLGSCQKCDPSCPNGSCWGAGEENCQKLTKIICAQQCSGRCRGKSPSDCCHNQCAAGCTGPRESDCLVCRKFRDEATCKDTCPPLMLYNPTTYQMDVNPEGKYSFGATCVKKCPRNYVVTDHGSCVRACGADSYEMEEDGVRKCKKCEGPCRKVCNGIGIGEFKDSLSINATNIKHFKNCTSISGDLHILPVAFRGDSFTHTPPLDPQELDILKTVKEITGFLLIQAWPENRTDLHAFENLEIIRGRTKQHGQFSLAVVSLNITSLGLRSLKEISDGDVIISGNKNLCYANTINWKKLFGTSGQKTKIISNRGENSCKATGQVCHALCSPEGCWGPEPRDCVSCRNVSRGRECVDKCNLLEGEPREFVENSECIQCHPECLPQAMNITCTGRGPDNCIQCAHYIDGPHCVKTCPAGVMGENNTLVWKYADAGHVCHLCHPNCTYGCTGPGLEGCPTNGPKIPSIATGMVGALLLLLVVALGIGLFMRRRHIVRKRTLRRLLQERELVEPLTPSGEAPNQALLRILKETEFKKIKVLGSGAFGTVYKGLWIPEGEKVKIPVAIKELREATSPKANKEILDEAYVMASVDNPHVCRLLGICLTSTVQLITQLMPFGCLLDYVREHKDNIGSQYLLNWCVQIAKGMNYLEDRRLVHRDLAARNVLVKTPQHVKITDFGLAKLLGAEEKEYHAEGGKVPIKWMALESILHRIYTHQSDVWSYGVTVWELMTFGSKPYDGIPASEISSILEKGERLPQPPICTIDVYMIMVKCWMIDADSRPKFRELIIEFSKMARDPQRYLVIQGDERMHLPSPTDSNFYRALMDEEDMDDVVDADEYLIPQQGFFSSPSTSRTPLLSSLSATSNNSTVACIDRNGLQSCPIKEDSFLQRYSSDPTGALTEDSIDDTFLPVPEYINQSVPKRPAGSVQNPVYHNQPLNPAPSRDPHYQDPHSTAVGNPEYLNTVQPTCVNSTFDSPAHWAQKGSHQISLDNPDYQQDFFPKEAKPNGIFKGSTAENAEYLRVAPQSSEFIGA

On to `C=C[C@]1(C)CC[C@@](C)(C(C)C)c2cc3c4c(c[nH]c4c21)C[C@@H](CO)NC(=O)[C@H](C(C)C)N3C`, for which the outcome in data set [1] was inactive.

For `C=CC(C)(C)c1ccc2c3c(c[nH]c13)C[C@@H](CO)NC(=O)[C@H](C(C)C)N2C` [PENDOLMYCIN], the MIC worked out at 50 mg/L (≈ 135 µM) in the data set with Bacillus cereus; 50 mg/L (≈ 135 µM) with Corynebacterium bovis; 50 mg/L (≈ 135 µM) in [2]; 100 mg/L (≈ 271 µM) in the data set with Klebsiella pneumoniae; 25 mg/L (≈ 67.7 µM) in the data set on Staphylococcus aureus; 25 mg/L (≈ 67.7 µM) against Micrococcus luteus. Moreover, the MIC against Bacillus anthracis and in the data set with Bacillus subtilis was 50 mg/L (≈ 135 µM) throughout. The outcome in data set [1] was inactive. The compound also gave an IC50 in the data set with A-431 of 0.001 mg/L (≈ 0.00271 µM). For the same compound, in the data set with Zone of skin, the Activity entry was “Toxic”.
